Numbers after ± are expanded uncertainties.
Columns and labels:
[1] = mn = molality of the nth substance listed, in mol/kg; conditions: 323.15 K; for surface tension liquid-gas: Pendant drop shape; for electrical conductivity: 100 kPa, Liquid, Alternating current cell with electrodes
[2] = Crystal; visual observation

Compound `CCCCCC(=O)[O-].CCCCCCCCCCCC[NH2+]C1O[C@H](CO)[C@@H](O[C@@H]2O[C@H](CO)[C@H](O)[C@H](O)[C@H]2O)[C@H](O)[C@H]1O` (stereo partly specified) [N-dodecyllactosylammonium hexanoate] + O has a surface tension liquid-gas ([1]; m1 = 0.4) of 58.74 ± 0.71 mN/m, a surface tension liquid-gas ([1]; m1 = 0.6) of 52.11 ± 0.65 mN/m and a surface tension liquid-gas ([1]; m1 = 0.8) of 48.69 ± 0.62 mN/m. The surface tension liquid-gas ([1]; m1 = 1) was 45.57 ± 0.59 mN/m, the surface tension liquid-gas ([1]; m1 = 1.6) was 37.41 ± 0.52 mN/m and the surface tension liquid-gas ([1]; m1 = 2) was 34.64 ± 0.49 mN/m. The surface tension liquid-gas ([1]; m1 = 2.4) was 32.22 ± 0.47 mN/m, the surface tension liquid-gas ([1]; m1 = 3) was 30.32 ± 0.45 mN/m and the electrical conductivity ([1]; m1 = 0.4) was 0.001851 ± 1e-06 S/m. It also gave an electrical conductivity ([1]; m1 = 0.79) of 0.00335 ± 1e-05 S/m, an electrical conductivity ([1]; m1 = 1.19) of 0.0048 ± 1e-05 S/m and an electrical conductivity ([1]; m1 = 1.57) of 0.00609 ± 1e-05 S/m. The electrical conductivity ([1]; m1 = 1.96) was 0.00734 ± 1e-05 S/m, the electrical conductivity ([1]; m1 = 2.34) was 0.00864 ± 1e-05 S/m and the electrical conductivity ([1]; m1 = 2.72) was 0.00986 ± 1e-05 S/m. For the same compound, the electrical conductivity ([1]; m1 = 3.1) was 0.01083 ± 1e-05 S/m.
Work on `CCC(=O)[O-].CCCCCCCCCCCC[NH2+]C1O[C@H](CO)[C@@H](O[C@@H]2O[C@H](CO)[C@H](O)[C@H](O)[C@H]2O)[C@H](O)[C@H]1O` (stereo partly specified) [N-dodecyllactosylammonium propanoate] + O yielded a surface tension liquid-gas ([1]; m1 = 0.2) of 67.63 ± 0.79 mN/m, a surface tension liquid-gas ([1]; m1 = 0.3) of 63.03 ± 0.74 mN/m and a surface tension liquid-gas ([1]; m1 = 0.4) of 58.77 ± 0.71 mN/m. It also gave a surface tension liquid-gas ([1]; m1 = 0.5) of 53.31 ± 0.65 mN/m, a surface tension liquid-gas ([1]; m1 = 0.6) of 50.73 ± 0.63 mN/m and a surface tension liquid-gas ([1]; m1 = 0.7) of 45.91 ± 0.58 mN/m. It also gave a surface tension liquid-gas ([1]; m1 = 0.8) of 42.76 ± 0.55 mN/m, a surface tension liquid-gas ([1]; m1 = 0.9) of 39.81 ± 0.52 mN/m and a surface tension liquid-gas ([1]; m1 = 1) of 37.73 ± 0.5 mN/m. The surface tension liquid-gas ([1]; m1 = 1.1) was 35.61 ± 0.48 mN/m, the surface tension liquid-gas ([1]; m1 = 1.2) was 34.86 ± 0.48 mN/m and the electrical conductivity ([1]; m1 = 0.2) was 0.001042 ± 1e-06 S/m. The electrical conductivity ([1]; m1 = 0.4) was 0.001921 ± 1e-06 S/m, the electrical conductivity ([1]; m1 = 0.6) was 0.00272 ± 1e-05 S/m and the electrical conductivity ([1]; m1 = 0.79) was 0.00355 ± 1e-05 S/m. For the same compound, the electrical conductivity ([1]; m1 = 0.99) was 0.00435 ± 1e-05 S/m and the electrical conductivity ([1]; m1 = 1.19) was 0.00512 ± 1e-05 S/m.
In the case of `O` [water] + CCCCCC(=O)[O-].CCCCCCCCCCCC[NH2+]C1O[C@H](CO)[C@@H](O[C@@H]2O[C@H](CO)[C@H](O)[C@H](O)[C@H]2O)[C@H](O)[C@H]1O, the surface tension liquid-gas ([1]; m2 = 0) is reported as 68.72 ± 0.79 mN/m and the electrical conductivity ([1]; m2 = 0) is reported as 0.000255 ± 1e-06 S/m.
`CCCCCCCCCCCCNC1O[C@H](CO)[C@@H](O[C@@H]2O[C@H](CO)[C@H](O)[C@H](O)[C@H]2O)[C@H](O)[C@H]1O` (stereo partly specified) [N-dodecyllactosylamine] gave a Triple point temperature [2] of 398.65 ± 0.5 K.
